Experimental data taken from patent US12187749B2, “Application of dipyrrinato-iridium complexes in anti-tumor and anti-bacterial therapy” (BIOLITEC UNTERGEHMENSBETEILIGUNGS II AG, priority 2020, dated 2025).

Columns and labels:
[1] = test system: HT 29 and other cell lines; assay: Cell tests (XTT cell viability), dark toxicity, in HT 29 and other cell lines; assay type: cell-based; conditions: 2 or 10 μM photosensitizer, 24 h incubation, XTT assay
Protocol: The photosensitizing activity was determined in the following cell lines: • HT29 (human colon adenocarcinoma cell line) • L929 (mouse fibroblast cell line) • A431 (human epidermoid carcinoma cell line) • A253 (submaxillary salivary gland, epidermoid cell line) • CAL-27 (human tongue squamous cell carcinoma cell line) • J774A.1 (Mouse BALB/c monocyte macrophage).
The cell lines were grown in DMEM (c.c.pro GmbH) supplemented with 10% heat-inactivated fetal calf serum (FCS, c.c.pro GmbH), 1% penicillin (10000 IU) and streptomycin (10000 μg/ml, c.c.pro GmbH). Cells were kept as a monolayer culture in a humidified incubator (5% CO2 in air at 37° C.). A photosensitizer stock solution (2 mM) was performed in DMSO and was kept in the dark at 4° C. Further dilution was performed in DMEM medium without phenol red supplemented with 10% FCS to reach a final photosensitizer concentration of 2 or 10 μM, respectively. After seeding the cells in micro plates, the cells were incubated with fresh medium (DMEM without phenol red) containing 10% FCS with 2 or 10 μM of the photosensitizer for 24 h before light exposure. Before photosensitization, cells were washed, cell culture medium was exchanged with DMEM without phenol red and 10% FCS, then irradiated at room temperature with white light source at a fixed fluence rate of about 100 mW/cm^2 (50 J/cm^2). Following irradiation, cells were incubated in a humidified incubator (5% CO2 in air at 37° C.) for 24 h until cell viability assay. The cell viability was assessed by the XTT assay. 500 mg XTT (sodium 3′-[phenyl-aminocarbonyl)-3,4-tetrazolium]-bis(4-methoxy-6-nitro)benzene sulfonic acid, Applichem GmbH) is dissolved in 500 ml PBS-Buffer (without Ca^2+ and Mg^2) and sterile filtered. Solution was stored in the dark at −20° C. until use. A sterile solution containing PMS (N-methyl dibenzopyrazine methyl sulfate, Applichem GmbH) was needed as an activation reagent for the XTT. 0.383 mg PMS was dissolved in 1 ml PBS-Buffer. […] The absorbance of the samples was measured with a microplate reader (Infinite 200, Tecan Group Ltd.) at a wavelength of 490 nm.

[2] = test system: Staphylococcus aureus DSM 1104; assay: Antibacterial testing (CFU/ml count) against S. aureus; assay type: cell-based; conditions: photosensitizer 100, 10 and 1 μM; for antibacterial activity against S. aureus in the absence of light: absence of light (dark toxicity control), 30 min incubation
Protocol: The organisms studied were Staphylococcus aureus DSM 1104, Gram-positive and Pseudomonas aeruginosa DSM 1117, Gram-negative. Cultures cells are suspended in sterile phosphate-buffered saline (PBS) or sterile PBS supplemented with 10% sterile horse blood serum. The bacterial suspensions are placed into sterile black well plates with clear bottoms. Concentrations of photosensitizer used in the study were as follows: 100 μM, 10 μM and 1 μM. After an incubation time period of 30 minutes, the samples are exposed to white light, with a power density and irradiation time resulting in an energy fluency of about 100 J/cm^2. Control plates contained no photosensitizer and are not exposed to laser light. The control samples for dark toxicity are only exposed to photosensitizer without any illumination. After irradiation, the samples are removed and suspended again in the culture media. The numbers of colony-forming units (CFU/ml) are enumerated after an adequate incubation time period.

| Substance | toxicity to cells in the absence of light (dark toxicity) [1] | antibacterial activity in the presence of complex media (serum addition) ([2]; PBS supplemented with 10% sterile horse blood serum) | antibacterial activity against S. aureus in the absence of light [2] |
| --- | --- | --- | --- |
| Chlorido{5-[4-(N,N-dibutylamino)-3-nitrophenyl]dipyrrinato}(pentamethyl-cyclopentadienyl)iridium(III) [Example 1.6] | non-toxic | – | – |
| Bis(2-phenylpyridyl){5-[2,3,5,6-tetrafluoro-4-(1′-thio-β-D-galactosyl)phenyl]-dipyrrinato}iridium(III) [Example 3.4] | – | antibacterial activity is also observed | high antibacterial activity |
| {5-[4-(N-Butylamino)-2,3,5,6-tetrafluorophenyl]dipyrrinato}chlorido-(pentamethylcyclopentadienyl)iridium(III) [Example 1.2] | non-toxic | – | – |
| {5-[4-(N-2-Hydroxyethylamino)-2,3,5,6-tetrafluorophenyl]dipyrrinato}bis(2-phenyl-pyridyl)iridium(III) [Example 2.1] | – | – | high antibacterial activity |
| Bis(2-phenylpyridyl){5-[2,3,5,6-tetrafluoro-4-(1′-thio-β-D-glucosyl)phenyl]-dipyrrinato}iridium(III) [Example 3.3] | – | – | high antibacterial activity |
| [5-(4-Butyloxy-2,3,5,6-tetrafluorophenyl)dipyrrinato]chlorido-(pentamethylcyclopentadienyl)iridium(III) [Example 1.3] | non-toxic | – | – |
